Assay results published in publication PMC6044914 (ACS Omega, 2017).
Values after ≈ are worked out from the molar mass of the structure shown. Where two headings read alike, the source gives them in different places.

What was measured:
[1] = test system: M. tuberculosis H37Rv (London Pride); assay: microbe, parasite or virus in culture; assay type: cell-based, Mycobacterium tuberculosis; settings: for activity against M. tuberculosis (in words): SAR discussion
Vero cells = settings: for cytotoxicity (in words): Vero cells
[2] = Mycobacterium tuberculosis, H37RV
[3] = Mycobacterium tuberculosis, H37RV, 120 h

Row | Molecule | activity against M. tuberculosis (in words) [1] | MIC [1, 2] [µM] | MIC [1, 3] [µM] | TC50 (Vero cells; African green monkey) [µM] | other results
1 | O=[N+]([O-])c1cnc(NS(=O)(=O)c2ccccc2O)s1 [compound 54, 2-Hydroxy-N-(5-nitrothiazol-2-yl)benzenesulfonamide] | inactive |  |  |  | 
2 | O=C(Nc1ccccn1)Nc1ncc([N+](=O)[O-])s1 [compound 39, 1-(5-Nitrothiazol-2-yl)-3-(pyridin-2-yl)urea] |  | > 20 |  |  | 
3 | CCC(C)(C)C(=O)Oc1cc(N2CCOCC2)ccc1C(=O)Nc1ncc([N+](=O)[O-])s1 [compound 14, 5-Morpholino-2-((5-nitrothiazol-2-yl)carbamoyl)phenyl 2,2-dimethylbutanoate] | no activity |  | > 20 | 12 | 
4 | O=C(Nc1ncc([N+](=O)[O-])s1)c1nc2ccccc2s1 [compound 44, N-(5-Nitrothiazol-2-yl)benzo[d]thiazole-2-carboxamide] |  | > 20 |  |  | 
5 | O=C(Nc1ncc([N+](=O)[O-])s1)c1cnccn1 [compound 32, N-(5-Nitrothiazol-2-yl)pyrazine-2-carboxamide] |  | > 20 |  |  | 
6 | CCC(C)(C)C(=O)Nc1ccccc1C(=O)Nc1ncc([N+](=O)[O-])s1 [compound 9, 2-(2,2-Dimethylbutanamido)-N-(5-nitrothiazol-2-yl)benzamide] | showed activity |  | 17 ± 4.9 (≈ 6.16 µg/mL) | 4.1 | 
7 | CC(=O)Oc1ccccc1C(=O)Nc1nccs1 [compound 45, 2-(Thiazol-2-ylcarbamoyl)phenyl Acetate] | eliminated all activity | > 20 |  | >50 | 
8 | O=[N+]([O-])c1cnc(NCc2ccccc2O)s1 [compound 55, 2-(((5-Nitrothiazol-2-yl)amino)methyl)phenol] | inactive |  |  |  | 
9 | O=C(Nc1ncc([N+](=O)[O-])s1)NC1CCCCC1 [compound 38, 1-Cyclohexyl-3-(5-nitrothiazol-2-yl)urea] |  | > 20 |  |  | 
10 | CC(=O)Nc1ccccc1C(=O)Nc1ncc([N+](=O)[O-])s1 [compound 7, 2-Acetamido-N-(5-nitrothiazol-2-yl)benzamide] | no activity |  | > 20 |  | 
11 | Cc1cnc(C(=O)Nc2ncc([N+](=O)[O-])s2)s1 [compound 43, 5-Methyl-N-(5-nitrothiazol-2-yl)thiazole-2-carboxamide] |  | > 20 |  |  | 
12 | Cc1nc(NC(=O)c2ccccc2O)sc1[N+](=O)[O-] [compound 46, 2-Hydroxy-N-(4-methyl-5-nitrothiazol-2-yl)benzamide] | inactive | > 20 |  | 5.2 | 
13 | CNc1ccccc1C(=O)Nc1ncc([N+](=O)[O-])s1 [compound 6, 2-(Methylamino)-N-(5-nitrothiazol-2-yl)benzamide] | no activity |  | > 20 | 15 | 
14 | O=C(Nc1nc(-c2ccccn2)c([N+](=O)[O-])s1)c1ccccn1 [compound 53, N-(5-Nitro-4-(pyridin-2-yl)thiazol-2-yl)picolinamide] | some activity | 8.5 ± 2.1 (≈ 2.78 µg/mL) |  | 6.4 | cytotoxicity (in words) (Vero cells): cytotoxicity
15 | O=[N+]([O-])c1cnc(NCc2ccccn2)s1 [compound 56, 5-Nitro-N-(pyridin-2-ylmethyl)thiazol-2-amine] | inactive |  |  |  | 
16 | O=C(Nc1ncc(C(=O)O)s1)c1ccccn1 [compound 51, 2-(Picolinamido)thiazole-5-carboxylic Acid] | inactive | > 20 |  | >50 | 
17 | COc1ccnc(C(=O)Nc2ncc([N+](=O)[O-])s2)c1 [compound 20, 4-Methoxy-N-(5-nitrothiazol-2-yl)picolinamide] |  |  | 5.6 ± 4.2 (≈ 1.57 µg/mL) | 11 | 
18 | O=C(Nc1ncc([N+](=O)[O-])s1)c1ccncc1 [compound 35, N-(5-Nitrothiazol-2-yl)isonicotinamide] |  | > 20 |  |  | 
19 | O=C(O)c1ccccc1C(=O)Nc1ncc([N+](=O)[O-])s1 [compound 16, 2-((5-Nitrothiazol-2-yl)carbamoyl)benzoic Acid] | no activity |  | > 20 | >50 | 
20 | 3-Isobutoxy-N-(5-nitrothiazol-2-yl)picolinamide [compound 22] |  |  |  |  | MIC ([1]; Table 1, […], average ± SD of two independent experiments): 16 ± 6.4 µM; TC50 (Vero cells): 8.9 µM
21 | O=C(Nc1ncc([N+](=O)[O-])s1)c1ccc(N2CCOCC2)cn1 [compound 25, 5-Morpholino-N-(5-nitrothiazol-2-yl)picolinamide] | inactive |  | > 20 | 11 | 
22 | COc1cccnc1C(=O)Nc1ncc([N+](=O)[O-])s1 [compound 24, 3-Methoxy-N-(5-nitrothiazol-2-yl)picolinamide] | inactive |  | > 20 | 37 | 

Row | Molecule | activity against M. tuberculosis (in words) [1] | MIC [1, 2] [µM] | MIC [1, 3] [µM] | TC50 (Vero cells; African green monkey) [µM] | other results
23 | CO[C@H]1/C=C/O[C@@]2(C)Oc3c(C)c(O)c4c(O)c(c(/C=N/N5CCN(C)CC5)c(O)c4c3C2=O)NC(=O)/C(C)=C\C=C\[C@H](C)[C@H](O)[C@@H](C)[C@@H](O)[C@@H](C)[C@H](OC(C)=O)[C@@H]1C [rifampicin, reference compound] |  |  | 0.004 (≈ 0.00329 µg/mL) | >50 | 
24 | Cn1ccnc1C(=O)Nc1ncc([N+](=O)[O-])s1 [compound 40, 1-Methyl-N-(5-nitrothiazol-2-yl)-1H-imidazole-2-carboxamide] |  | > 20 |  |  | 
25 | Cc1nc(NC(=O)c2ccccn2)sc1[N+](=O)[O-] [compound 50, N-(4-Methyl-5-nitrothiazol-2-yl)picolinamide] | some activity | 1.5 ± 0.6 (≈ 0.396 µg/mL) |  | 4.2 | cytotoxicity (in words) (Vero cells): cytotoxicity
26 | CCC(C)(C)C(=O)Nc1cccnc1C(=O)Nc1ncc([N+](=O)[O-])s1 [compound 18, 3-(2,2-Dimethylbutanamido)-N-(5-nitrothiazol-2-yl)picolinamide] | showed activity |  | 1.4 ± 0.6 (≈ 0.509 µg/mL) | 0.9 | improvement in activity relative to 1 [1]: 10 fold
27 | O=C(Nc1ncc([N+](=O)[O-])s1)C1CC1 [compound 27, N-(5-nitrothiazol-2-yl)cyclopropanecarboxamide] | loss of activity | > 20 |  |  | 
28 | COc1ccccc1C(=O)Nc1ncc([N+](=O)[O-])s1 [compound 17, 2-Methoxy-N-(5-nitrothiazol-2-yl)benzamide] | no activity |  | > 20 |  | 
29 | Cc1cnc(NC(=O)c2ccccn2)s1 [compound 48, N-(5-Methylthiazol-2-yl)picolinamide] | inactive | > 20 |  | 12 | 
30 | O=C(Nc1ncc(C(F)(F)F)s1)c1ccccn1 [compound 49, N-(5-(Trifluoromethyl)thiazol-2-yl)picolinamide] | some activity | 5.3 ± 0.2 (≈ 1.45 µg/mL) |  | 0.8 | cytotoxicity (in words) (Vero cells): cytotoxicity
31 | O=C(Nc1ncc([N+](=O)[O-])s1)N1CCCCC1 [compound 31, N-(5-Nitrothiazol-2-yl)piperidine-1-carboxamide] |  | > 20 |  |  | 
32 | O=C(Nc1ncc([N+](=O)[O-])s1)c1cc(O)ccc1O [compound 15, 2,5-Dihydroxy-N-(5-nitrothiazol-2-yl)benzamide] | no activity |  | > 20 | 13 | 
33 | Nc1ccccc1C(=O)Nc1ncc([N+](=O)[O-])s1 [compound 5, 2-Amino-N-(5-nitrothiazol-2-yl)benzamide] | no activity |  | > 20 | 31 | 
34 | O=C(Nc1ncc([N+](=O)[O-])s1)c1ccncn1 [compound 30, N-(5-Nitrothiazol-2-yl)pyrimidine-4-carboxamide] | loss of activity | > 20 |  |  | 
35 | COc1ccc(C(=O)Nc2ncc([N+](=O)[O-])s2)nc1 [compound 21, 5-Methoxy-N-(5-nitrothiazol-2-yl)picolinamide] |  |  | 5.5 ± 2.1 (≈ 1.54 µg/mL) | 4.3 | 
36 | CC(C)(C)OC(=O)Nc1ccccc1C(=O)Nc1ncc([N+](=O)[O-])s1 [compound 10, tert-Butyl (2-((5-nitrothiazol-2-yl)carbamoyl)phenyl)carbamate] | showed activity |  | 17 ± 4.2 (≈ 6.19 µg/mL) | 6.6 | 
37 | O=C(Nc1nc(-c2ccccn2)cs1)c1ccccn1 [compound 52, N-(4-(Pyridin-2-yl)thiazol-2-yl)picolinamide] | inactive | > 20 |  | 15 | 
38 | O=C(Nc1ncc([N+](=O)[O-])s1)c1cc(F)ccc1O [compound 11, 5-Fluoro-2-hydroxy-N-(5-nitrothiazol-2-yl)benzamide] | no activity |  | > 20 |  | 
39 | O=C(Nc1ncc([N+](=O)[O-])s1)c1nccs1 [compound 33, N-(5-Nitrothiazol-2-yl)thiazole-2-carboxamide] |  | > 20 |  |  | 
40 | CC(=O)Nc1ncc([N+](=O)[O-])s1 [compound 26, N-(5-Nitrothiazol-2-yl)acetamide] | loss of activity | > 20 |  |  | 
41 | O=C(Nc1ncc([N+](=O)[O-])s1)C1CCCCC1O (stereo not shown) [compound 29, 2-Hydroxy-N-(5-nitrothiazol-2-yl)cyclohexane-1-carboxamide] |  | > 20 |  |  | 
42 | O=C(Nc1ncc([N+](=O)[O-])s1)c1ccon1 [compound 42, N-(5-Nitrothiazol-2-yl)isoxazole-3-carboxamide] |  | > 20 |  |  | 
43 | O=C(Nc1ncc([N+](=O)[O-])s1)c1cccnc1 [compound 34, N-(5-Nitrothiazol-2-yl)nicotinamide] |  | > 20 |  |  | 
44 | O=C(Nc1ncc([N+](=O)[O-])s1)c1ncco1 [compound 41, N-(5-Nitrothiazol-2-yl)oxazole-2-carboxamide] |  | > 20 |  |  | 
